# US20040176431A1, “Antiproliferative 2-(sulfo-phenyl)-aminothiazole derivatives and pharmaceutical compositions, and methods for their use” (Pfizer, Inc., priority 2003, published 2004)
# How the values were obtained:
# CDK2/cyclin A = molecular target: T1, CDK2/cyclin A (Homo sapiens, UniProt P24941); assay: Inhibition of CDK2/Cyclin A retinoblastoma kinase activity; assay type: biochemical; details: apparent Ki, Rb fragment substrate
# T1 construct: made in house; host or cells: CDK2: insect cells (baculovirus); cyclin A: E. coli, then limited proteolysis
# Method: Cyclin-dependent kinase activity was measured by quantifying the enzyme-catalyzed, time-dependent incorporation of radioactive phosphate from [^32P]ATP or [^33P]ATP into a protein substrate. Unless noted otherwise, assays were performed in 96-well plates in a total volume of 50 μL, in the presence of 10 mM HEPES (N-[2-hydroxyethyl]piperazine-N′-[2-ethanesulfonic acid]) (pH 7.4), 10 mM MgCl2, 25 μM adenosine triphosphate (ATP), 1 mg/mL ovalbumin, 5 μg/mL leupeptin, 1 mM dithiothreitol, 10 mM β-glycerophosphate, 0.1 mM sodium vanadate, 1 mM sodium fluoride, 2.5 mM ethylene glycol-bis(β-aminoethyl ether)-N,N,N′N′-tetraacetic acid (EGTA), 2% (v/v) dimethylsulfoxide, and 0.03-0.4 μCi [^32/33P]ATP per reaction. Reactions were initiated with enzyme, incubated at 30° C., and terminated after 20 minutes by the addition of ethylenediaminetetraacetic acid (EDTA) to 250 mM. The phosphorylated substrate was then captured on a nitrocellulose or phosphocellulose membrane using a 96-well filtration manifold, and unincorporated radioactivity was removed by repeated washing with 0.85% phosphoric acid. Radioactivity was quantified by exposing the dried membranes to a phosphorimager.
# Inhibition was measured relative to control wells that contained all reaction components including 2% (v/v) DMSO but no compound, after subtraction of background radioactivity measured in the absence of enzyme. Apparent Ki values of discrete compounds were measured by assaying enzyme activity in the presence of different inhibitor compound concentrations and subtracting the background radioactivity measured in the absence of enzyme. The kinetic parameters (kcat, Km for ATP) were measured for each enzyme under the usual assay conditions by determining the dependence of initial rates on ATP concentration. Inhibition data were fit to an equation for competitive inhibition using Kaleidagraph (Synergy Software), or were fit to an equation for competitive tight-binding inhibition using the software KineTic (BioKin, Ltd.).
# CDK2 was purified using published methodology (Rosenblatt et al., J. Mol. Biol., 230, 1317-1319 (1993)) from insect cells that had been infected with a baculovirus expression vector. Cyclin A was purified from E. coli cells expressing full-length recombinant cyclin A, and a truncated cyclin A construct was generated by limited proteolysis and purified as described previously (Jeffrey et al., Nature, 376, 313-320 (1995)). A complex of CDK2 and proteolyzed cyclin A was prepared and purified by gel filtration. The substrate for this assay was the same Rb substrate fragment used for the CDK4 assays, and the methodology of the CDK2/delta cyclin A and the CDK4/delta cyclin D3 assays was essentially the same, except that CDK2 was present at 10 nM or 19 nM. The duration of the assay was 60 or 75 minutes, during which the time-dependence of product formation was linear and initial rate conditions were met.
# CDK4/cyclin D3 = molecular target: T2, CDK4/cyclin D3 (Homo sapiens, UniProt P11802); assay: Inhibition of CDK4/Cyclin D retinoblastoma kinase activity; assay type: biochemical; details: apparent Ki, Rb fragment substrate
# T2 construct: made in house; host or cells: insect cells (baculovirus co-infection)
# T2 sequence (P11802 whole entry, the tested form may be a part): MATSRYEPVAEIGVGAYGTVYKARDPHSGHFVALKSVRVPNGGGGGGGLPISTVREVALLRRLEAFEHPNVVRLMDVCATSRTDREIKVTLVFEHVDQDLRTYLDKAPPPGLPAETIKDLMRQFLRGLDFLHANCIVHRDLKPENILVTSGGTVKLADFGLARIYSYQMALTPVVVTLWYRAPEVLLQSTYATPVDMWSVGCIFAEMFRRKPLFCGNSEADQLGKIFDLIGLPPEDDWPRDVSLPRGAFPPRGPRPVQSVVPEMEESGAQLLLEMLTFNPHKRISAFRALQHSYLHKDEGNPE
# T2 sequence (P30281 1-264 partner limits assumed): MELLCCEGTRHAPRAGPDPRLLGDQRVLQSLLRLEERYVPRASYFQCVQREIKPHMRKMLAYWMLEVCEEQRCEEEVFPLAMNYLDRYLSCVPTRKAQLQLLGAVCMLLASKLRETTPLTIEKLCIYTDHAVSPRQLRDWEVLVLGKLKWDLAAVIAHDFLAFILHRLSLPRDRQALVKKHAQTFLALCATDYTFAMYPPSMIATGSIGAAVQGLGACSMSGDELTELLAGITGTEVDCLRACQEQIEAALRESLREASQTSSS
# Outline: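 Apparent Ki derived by fitting activity at varied inhibitor concentrations to competitive (or competitive tight-binding) inhibition equations, background without enzyme subtracted. Radiometric filter-binding read-out of Rb(386-928) phosphorylation by 5 nM CDK4/cyclin D3(1-264); 25 μM ATP, pH 7.4, 2% DMSO, 30° C., 20 min, extended to 60 min for tight binders.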
# HCT-116 cells = assay: Inhibition of cell growth (MTT tetrazolium salt assay); assay type: cell-based; details: Homo sapiens; for IC50: read-out: HCT116 IC50; for IC90: read-out: HCT116 IC90
# Outline: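 HCT-116 cells in McCoy's 5A were pre-incubated 4 h, then exposed to compounds in 0.5% DMSO for 4–6 days at 37 °C. MTT at 0.2 mg/mL final was added for 4 h and DMSO-solubilized formazan read at 540 nm. Values are relative to 0.5% DMSO-only controls.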
Structure (SMILES),Ki (CDK2/cyclin A) [nM],Ki (CDK4/cyclin D3) [nM],IC50 (HCT-116 cells) [nM],IC90 (HCT-116 cells) [nM]
"Nc1nc(Nc2ccc(S(=O)(=O)NCCCN3CCCC3)cc2)sc1C(=O)c1c(F)cccc1F [Example A(8), 4-[4-Amino-5-(2,6-difluoro-benzoyl)-thiazol-2-ylamino]-N-(3-pyrrolidin-1-yl-propyl)-benzenesulfonamide]",11,9.9,2400,5000
"Nc1nc(Nc2ccc(S(=O)(=O)NCCNc3ccccc3)cc2)sc1C(=O)c1c(F)cccc1F [Example A(9), 4-[4-Amino-5-(2,6-difluoro-benzoyl)-thiazol-2-ylamino]-N-(2-phenylamino-ethyl)-benzenesulfonamide]",< 5,< 5,140,400
"CC(C)OCCCNS(=O)(=O)c1ccc(Nc2nc(N)c(C(=O)c3c(F)cccc3F)s2)cc1 [Example A(10), 4-[4-Amino-5-(2,6-difluoro-benzoyl)-thiazol-2-ylamino]-N-(3-isopropoxy-propyl)-benzenesulfonamide]",2.2,12,900,2200
"CC(CCCC(C)(C)O)NS(=O)(=O)c1ccc(Nc2nc(N)c(C(=O)c3c(F)cccc3F)s2)cc1 (stereo not shown) [Example A(12), 4-[4-Amino-5-(2,6-difluoro-benzoyl)-thiazol-2-ylamino]-N-(5-hydroxy-1,5-dimethyl-hexyl)-benzenesulfonamide]",< 5,4.2,150,630
"CCN(CC)CCCNS(=O)(=O)c1ccc(Nc2nc(N)c(C(=O)c3c(F)cccc3F)s2)cc1 [Example A(13), 4-[4-Amino-5-(2,6-difluoro-benzoyl)-thiazol-2-ylamino]-N-(3-diethylamino-propyl)-benzenesulfonamide]",10,8.9,730,3000
"Nc1nc(Nc2ccc(S(=O)(=O)NCCCN3CCCCC3)cc2)sc1C(=O)c1c(F)cccc1F [Example A(14), 4-[4-Amino-5-(2,6-difluoro-benzoyl)-thiazol-2-ylamino]-N-(3-piperidin-1-yl-propyl)-benzenesulfonamide]",6,8.1,420,1700
"CC1CCCCN1CCCNS(=O)(=O)c1ccc(Nc2nc(N)c(C(=O)c3c(F)cccc3F)s2)cc1 (stereo not shown) [Example A(15), 4-[4-Amino-5-(2,6-difluoro-benzoyl)-thiazol-2-ylamino]-N-[3-(2RS-methyl-piperidin-1-yl)-propyl]-benzenesulfonamide]",8.2,8.4,460,1800
"Nc1nc(Nc2ccc(S(=O)(=O)N3CCC(CCO)CC3)cc2)sc1C(=O)c1c(F)cccc1F [Example A(16), (4-Amino-2-{4-[4-(2-hydroxy-ethyl)-piperidine-1-sulfonyl]-phenylamino}thiazol-5-yl)-(2,6-difluoro-phenyl)-methanone]",18,57,1500,3900
"CC(C)OCCNS(=O)(=O)c1ccc(Nc2nc(N)c(C(=O)c3c(F)cccc3F)s2)cc1 [Example A(17), 4-[4-Amino-5-(2,6-difluoro-benzoyl)-thiazol-2-ylamino]-N-(2-isopropoxy-ethyl)-benzenesulfonamide]",2,14,140,450
"Cc1ccc(CCNS(=O)(=O)c2ccc(Nc3nc(N)c(C(=O)c4c(F)cccc4F)s3)cc2)cc1 [Example A(18), 4-[4-Amino-5-(2,6-difluoro-benzoyl)-thiazol-2-ylamino]-N-(2-p-tolyl-ethyl)-benzenesulfonamide]",5.8,24,1800,3700
"CCSCCNS(=O)(=O)c1ccc(Nc2nc(N)c(C(=O)c3c(F)cccc3F)s2)cc1 [Example A(19), 4-[4-Amino-5-(2,6-difluoro-benzoyl)-thiazol-2-ylamino]-N-(2-ethylsulfanyl-ethyl)-benzenesulfonamide]",1.8,24,400,1300
"Nc1nc(Nc2ccc(S(=O)(=O)NCCc3ccc(F)cc3)cc2)sc1C(=O)c1c(F)cccc1F [Example A(20), 4-[4-Amino-5-(2,6-difluoro-benzoyl)-thiazol-2-ylamino]-N-[2-(4-fluoro-phenyl)-ethyl]-benzenesulfonamide]",< 5,14,900,2600
"CN(C)CCCNS(=O)(=O)c1ccc(Nc2nc(N)c(C(=O)c3c(F)cccc3F)s2)cc1 [Example A(21), 4-[4-Amino-5-(2,6-difluoro-benzoyl)-thiazol-2-ylamino]-N-(3-dimethylamino-propyl)-benzenesulfonamide]",14,6.8,1800,4400
"Cc1cc(F)c(C(=O)c2sc(Nc3ccc(S(=O)(=O)NCCOC(C)C)cc3)nc2N)c(F)c1 [Example CC(1), 4-[4-Amino-5-(2,6-difluoro-4-methyl-benzoyl)-thiazol-2-ylamino]-N-(2-isopropoxy-ethyl)-benzenesulfonamide]",0.74,9.7,280,480
"CS(=O)(=O)c1ccc(Nc2nc(N)c(C(=O)c3c(F)cccc3F)s2)cc1 [Q(1), 1-[4-Amino-2-(4-methanesulfonyl-phenylamino)-thiazol-5-yl]-1-(2,6-difluoro-phenyl)-methanone]",210,73,1300,3800
"CSc1ccc(Nc2nc(N)c(C(=O)c3c(Cl)cccc3Cl)s2)cc1 [R(2), 4-Amino-5-(2,6-dichlorobenzoyl)-2-(4-methylthio-phenylamino)-thiazole]",250,30,12000,> 25000
"NC(=O)CSc1ccc(Nc2nc(N)c(C(=O)c3c(Cl)cccc3Cl)s2)cc1 [Y(1), 2-{4-[4-Amino-5-(2,6-dichloro-benzoyl)-thiazol-2-ylamino]-phenylthio}-acetamide]",66,11,2300,6000
"Nc1nc(Nc2ccc(SCCO)cc2)sc1C(=O)c1c(Cl)cccc1Cl [Y(2), 4-Amino-5-(2,6-dichlorobenzoyl)-2-[4-(2-hydroxy-ethylthio)-phenylamino]-thiazole]",140,7.6,3900,13000
"NC(=O)CSc1cccc(Nc2nc(N)c(C(=O)c3c(Cl)cccc3Cl)s2)c1 [Y(3), 2-{3-[4-Amino-5-(2,6-dichloro-benzoyl)-thiazol-2-ylamino]-phenylthio) acetamide]",92,33,11000,> 25000
"NC(=O)C[S+]([O-])c1ccc(Nc2nc(N)c(C(=O)c3c(Cl)cccc3Cl)s2)cc1 (stereo not shown) [Z(2), 2-(4-{4-Amino-5-(2,6-dichlorobenzoyl)-thiazol-2-ylamino}-benzenesulfinyl)-acetamide]",62,15,18000,> 25000
"Nc1nc(Nc2ccc([S+]([O-])CCO)cc2)sc1C(=O)c1c(Cl)cccc1Cl (stereo not shown) [Z(3), 4-Amino-5-(2,6-dichlorobenzoyl)-2-[4-(2-hydroxy-ethanesulfinyl)-phenylamino]-thiazole]",170,30,6800,16000
"NC(=O)C[S+]([O-])c1cccc(Nc2nc(N)c(C(=O)c3c(Cl)cccc3Cl)s2)c1 (stereo not shown) [Z(5), 2-{3-[4-Amino-5-(2,6-dichloro-benzoyl)-thiazol-2-ylamino]-benzenesulfinyl}-acetamide]",330,230,> 25000,> 25000
